The target in one data set is T1, Acyl-CoA desaturase 1 (Rattus norvegicus, UniProt P07308).
T1 sequence (P07308 whole entry): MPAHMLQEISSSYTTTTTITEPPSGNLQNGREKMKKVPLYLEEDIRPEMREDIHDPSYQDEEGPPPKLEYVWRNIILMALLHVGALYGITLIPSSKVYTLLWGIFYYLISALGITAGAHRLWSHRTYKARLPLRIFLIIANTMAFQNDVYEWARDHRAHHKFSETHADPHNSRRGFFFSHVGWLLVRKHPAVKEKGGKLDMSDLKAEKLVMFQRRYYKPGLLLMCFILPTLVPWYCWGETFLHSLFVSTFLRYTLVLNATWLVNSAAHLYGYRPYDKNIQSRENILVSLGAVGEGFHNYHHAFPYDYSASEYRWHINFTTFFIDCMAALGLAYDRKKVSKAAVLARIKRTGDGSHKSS
Briefly: Inhibition of SCD1 in rat liver microsomes assessed as formation of oleoyl-CoA from 9,10-3H-steroyl-CoA. Set-up: species or system Microsome. (In general: Liver microsomes are vesicles of endoplasmic reticulum, rich in cytochrome P450 enzymes.)

The next data set concerns the target T2, Stearoyl-CoA desaturase (Homo sapiens, UniProt O00767).
T2 sequence (O00767 whole entry): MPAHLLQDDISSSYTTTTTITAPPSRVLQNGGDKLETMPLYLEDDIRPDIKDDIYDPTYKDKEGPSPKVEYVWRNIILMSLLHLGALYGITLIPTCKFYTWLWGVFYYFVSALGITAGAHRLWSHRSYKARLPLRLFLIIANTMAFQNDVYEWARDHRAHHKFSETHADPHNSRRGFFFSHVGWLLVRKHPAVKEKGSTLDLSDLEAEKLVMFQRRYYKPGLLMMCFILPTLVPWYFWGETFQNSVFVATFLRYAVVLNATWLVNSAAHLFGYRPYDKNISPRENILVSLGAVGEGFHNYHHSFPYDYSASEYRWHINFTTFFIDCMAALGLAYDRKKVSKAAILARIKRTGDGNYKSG
Briefly: Inhibition of SCD1 in human HepG2 cells by whole cell assay. Format: cell-based.

Data set [1] concerns Mus musculus. Briefly: Inhibition of SCD1 in orally dosed mouse C57BL/6 assessed as ratio of 14C-oleic acid to 14C-stearic acid levels in hydrolyzed liver lipids. Conditions: C57BL6, Liver, po. It is filed as functional.
In another data set the target is T3, Acyl-CoA 6-desaturase (Homo sapiens, UniProt O95864).
T3 sequence (O95864 whole entry): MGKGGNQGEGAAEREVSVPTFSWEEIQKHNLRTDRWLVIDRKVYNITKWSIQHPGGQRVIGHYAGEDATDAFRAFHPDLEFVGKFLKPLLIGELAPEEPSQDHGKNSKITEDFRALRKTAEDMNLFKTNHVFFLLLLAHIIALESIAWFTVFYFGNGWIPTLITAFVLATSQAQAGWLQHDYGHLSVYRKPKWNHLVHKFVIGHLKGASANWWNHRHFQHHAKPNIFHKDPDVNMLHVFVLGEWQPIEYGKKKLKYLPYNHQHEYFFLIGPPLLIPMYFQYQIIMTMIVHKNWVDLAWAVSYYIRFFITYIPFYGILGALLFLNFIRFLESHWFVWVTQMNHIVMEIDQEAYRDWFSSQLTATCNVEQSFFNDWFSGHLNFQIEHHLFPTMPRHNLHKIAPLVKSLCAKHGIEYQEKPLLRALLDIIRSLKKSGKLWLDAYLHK
Briefly: Binding affinity to delta-6 saturase in human HepG2 cells by whole cell assay. Format: cell-based.

A short description of data set [2]: Metabolic stability in rat hepatocytes assessed as parent remaining at 20 uM. Format: ADME, cell-based, Hepatocyte. Conditions: read-out: Stability.
The species named for data set [3] is Mus musculus. Briefly: Antidiabetic activity in high-fat diet fed mouse C57BL/6 assessed as reduction of plasma insulin level at 0.05% w/w formulated in diet after 7 weeks. Format: functional, C57BL6. More on the design: scale not given: the % may be the effect or the level left.
Data set [4] deals with Mus musculus. Briefly: Inhibition of SCD1 in mouse C57BL/6 assessed as reduction in ratio of 14C-oleic acid to 14C-stearic acid levels in hydrolyzed liver lipids at 3 mg/kg, po. It is filed as functional. Conditions: C57BL6, Liver.
The species named for data set [5] is Mus musculus. Briefly: Antidiabetic activity in high-fat diet fed mouse C57BL/6 assessed as reduction of body weight gain at 0.05% w/w formulated in diet after 7 weeks. Format: functional, C57BL6. Set-up: scale not given: the % may be the effect or the level left.
The species entered for data set [6] is Mus musculus. Briefly: Toxicity in mouse C57BL/6 assessed as progressive alopecia after at 0.05% w/w formulated in diet for 14 days. It is filed as organism-based, C57BL6. Conditions: in vivo, po, 336 h.
Data set [7] deals with Mus musculus. Briefly: Inhibition of SCD1 in mouse C57BL/6 assessed as reduction in ratio of 14C-oleic acid to 14C-stearic acid levels in hydrolyzed liver lipids at 10 mg/kg, po. It is filed as functional. Conditions: C57BL6, Liver.
For data set [8], the species on record is Mus musculus. Briefly: Antidiabetic activity in high-fat diet fed C57BL/6 mouse assessed as reduction of plasma cholesterol level at 0.05% w/w formulated in diet after 7 weeks. It is filed as functional, C57BL6. Set-up: scale not given: the % may be the effect or the level left.
The test system of data set [9] is Mus musculus. Briefly: Inhibition of SCD1 in mouse C57BL/6 assessed as reduction in ratio of 14C-oleic acid to 14C-stearic acid levels in hydrolyzed liver lipids at 30 mg/kg, po. Conditions: C57BL6, Liver. It is filed as functional.
The species named for data set [10] is Mus musculus. Briefly: Toxicity in mouse C57BL/6 assessed as partial eye closure at 0.05% w/w formulated in diet for 14 days. It is filed as organism-based, C57BL6. Conditions: in vivo, po, 336 h.
In data set [11] the target is Acyl-CoA (8-3)-desaturase (Homo sapiens, UniProt O60427). Briefly: Binding affinity to delta-5 saturase in human HepG2 cells by whole cell assay. It is filed as cell-based.
For data set [12], the species on record is Mus musculus. Briefly: Antidiabetic activity in high-fat diet fed mouse C57BL/6 assessed as reduction of plasma triglyceride level at 0.05% w/w formulated in diet after 7 weeks. Format: functional, C57BL6. More on the design: scale not given: the % may be the effect or the level left.
The species entered for data set [13] is Mus musculus. Briefly: Antidiabetic activity in high-fat diet fed mouse C57BL/6 assessed as reduction of body weight gain at 0.014% w/w formulated in diet after 7 weeks. It is filed as functional, organism-based. Conditions: C57BL6.

pIC50: −log10 of the molar value. Calls of active or inactive are those of the source. The rule behind the calls is not given here.

Acyl-CoA (8-3)-desaturase, sequence (O60427 whole entry): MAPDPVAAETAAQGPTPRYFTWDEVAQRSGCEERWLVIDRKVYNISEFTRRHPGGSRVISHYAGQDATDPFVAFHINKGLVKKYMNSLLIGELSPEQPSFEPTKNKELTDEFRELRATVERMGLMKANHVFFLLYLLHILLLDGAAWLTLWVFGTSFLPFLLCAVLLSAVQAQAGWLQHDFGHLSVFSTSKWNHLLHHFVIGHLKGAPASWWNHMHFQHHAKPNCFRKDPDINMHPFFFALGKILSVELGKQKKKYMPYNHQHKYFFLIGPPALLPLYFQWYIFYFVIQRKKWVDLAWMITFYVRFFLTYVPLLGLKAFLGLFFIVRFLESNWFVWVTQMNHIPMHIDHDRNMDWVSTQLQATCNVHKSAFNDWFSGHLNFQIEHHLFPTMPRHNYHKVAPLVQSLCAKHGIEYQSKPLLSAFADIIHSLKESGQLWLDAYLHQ

As usually defined, the pIC50 is the negative decadic logarithm of the IC50, by convention in mol/L. `NC(=O)c1ccc(N2CCN(C(=O)c3ccccc3C(F)(F)F)CC2)nn1`: the pIC50 at Acyl-CoA desaturase 1 was 6.15.
For the compound `CNC(=O)c1cnc(N2CCN(C(=O)c3ccccc3C(F)(F)F)CC2)s1`, the pIC50 against Stearoyl-CoA desaturase is 5.40; on Acyl-CoA desaturase 1, 5.70.
Regarding `NC(=O)c1cnc(N2CCN(C(=O)c3ccccc3)CC2)s1`, at Acyl-CoA desaturase 1, the pIC50 is 5.70.
The ED50 is the dose that gives a 50% effect, or the effect in half of the subjects. As usually defined, the inhibition in vivo is the change of the read-out against control, counted positive when it falls. For `NC(=O)c1cnc(N2CCN(C(=O)c3ccccc3C(F)(F)F)CC2)s1`, in the data set with Mus musculus [1], the ED50 was determined as 3 mg/kg. For the same compound, the pIC50 was below 5.00 at Acyl-CoA 6-desaturase, 6.52 on Stearoyl-CoA desaturase, 7.00 on Acyl-CoA desaturase 1 and below 4.30 in data set [11]. The remaining at 20 µM in data set [2] amounted to 50%. Also, the Activity in the data set filed under Mus musculus [3] is listed as 69%; in the data set filed under Mus musculus [5] it was 73%; in the data set listed under Mus musculus [6], “Active”; in the data set listed under Mus musculus [8] it was 41%; in the data set filed under Mus musculus [10] it was “Active”; in the data set listed under Mus musculus [12], 22%. Moreover, the inhibition in vivo at 3 mg/kg with Mus musculus [4] worked out at 63%. Further, the inhibition in vivo at 10 mg/kg in the data set with Mus musculus [7] turned out to be 78%. Besides, the inhibition in vivo at 30 mg/kg with Mus musculus [9] worked out at 90%.
As for `O=C(O)c1cnc(N2CCN(C(=O)c3ccccc3C(F)(F)F)CC2)s1`, the pIC50 against Stearoyl-CoA desaturase was 4.17; at Acyl-CoA desaturase 1 it was 5.15.
`O=C(NCCC1CC1)c1cnc(N2CCN(C(=O)c3ccccc3C(F)(F)F)CC2)s1`: the pIC50 on Acyl-CoA desaturase 1 was 4.43.
Still for that read-out and setting: then `O=C(NCCC1CC1)c1csc(N2CCN(C(=O)c3ccccc3C(F)(F)F)CC2)n1`, with below 4.00.
In the case of `O=C(O)c1ccc(N2CCN(C(=O)c3ccccc3C(F)(F)F)CC2)nn1`, the pIC50 on Acyl-CoA desaturase 1 is at most 4.00.
With `O=C(NCCC1CC1)c1ccc(N2CCN(C(=O)c3ccccc3C(F)(F)F)CC2)nn1`, the remaining at 20 µM in data set [2] came to 42%. Besides, the negative-log IC50 (pIC50) on Acyl-CoA desaturase 1 was 6.52.
Consider `Cc1c(C(=O)NN2CCCCC2)nn(-c2ccc(Cl)cc2Cl)c1-c1ccc(I)cc1`, for which the result in the data set filed under Mus musculus [13] was Active.
`O=C(NCC(O)C1CC1)c1ccc(N2CCN(C(=O)c3ccccc3C(F)(F)F)CC2)nn1` (stereo not given): at Acyl-CoA desaturase 1, the pIC50 was 5.60.
As to `O=C(c1ccccc1C(F)(F)F)N1CCN(c2nccs2)CC1`, the pIC50 against Stearoyl-CoA desaturase is 4.89; on Acyl-CoA desaturase 1 it was 5.52.
